# Reference: paper PMC8271847, “In Silico Approach Using Free Software to Optimize the Antiproliferative Activity and Predict the Potential Mechanism of Action of Pyrrolizine-Based Schiff Bases” (Molecules, 2021)
# Where two headings read alike, the source gives them in different places.
# Columns and labels:
# COX-1 = test system: COX-1; set-up: method as in PMID 26994693; conditions: Figure 2; cited from earlier work
# 5-LOX = test system: 5-LOX; set-up: method as in PMID 26994693; conditions: Figure 2; cited from earlier work
# COX-2 = conditions: cited from earlier work
# MCF7 cells [1] = test system: MCF7 cells; set-up: method as in PMID 31259695; conditions: quoted from previous publication; cited from earlier work
# [2] = test system: MCF7, A2780 and HT29 cancer cell lines; set-up: method as in PMID 31259695; conditions: read-out: IC50 range against the three cancer cell lines; cited from earlier work
# HT29 cells [3] = test system: HT29 cells; set-up: method as in PMID 31259695; conditions: quoted from previous publication; cited from earlier work
# A2780 cells [4] = test system: A2780 cells; set-up: method as in PMID 31259695; conditions: quoted from previous publication; cited from earlier work
# MCF7 cells [5] = assay: MTT antiproliferative activity assay, MCF7; type: cell-based; conditions: for IC50: Homo sapiens, MCF7, MTT, 72 h, mean ± S.D. (n = 3); for Selectivity Index MCF7: IC50 against MRC5 divided by IC50 against MCF7
# Procedure: (§1) The antiproliferative activities of the eight Schiff bases 16a–h against three cancer cell lines (MCF-7, A2780, and HT29) were evaluated using the MTT assay. The selection of these cell lines was done to compare the antiproliferative activities of the new compounds with those of compound 10 [20]. The assay was performed following the previous report.
# (§2) In the current study, the three cancer cell lines (MCF7, A2780, and HT29) used were obtained from the ATCC. The cell lines were cultured following our previous report. On the other hand, the normal MRC5 cells used in the current study were maintained in Eagle’s minimum essential medium following the previous report.
# (§3) The antiproliferative activity was measured using the MTT assay according to the previous report. Briefly, the cancer/normal cell lines were cultured in 96-well (3 × 10^3/well) separately. The cells were treated by tested compounds 16a–h in final concentrations of 0, 0.1, 1, 10, 25, and 50 μM and incubated at 37 °C for 72 h. The MTT was added and the antiproliferative activities (IC50 values) of the new compounds were calculated.
# HT29 cells [6] = assay: MTT antiproliferative activity assay, HT29; type: cell-based; conditions: for IC50: Homo sapiens, HT-29, MTT, 72 h, mean ± S.D. (n = 3); for Selectivity Index HT29: IC50 against MRC5 divided by IC50 against HT29
# Procedure: as §1, §2, §3
# A2780 cells [7] = assay: MTT antiproliferative activity assay, A2780; type: cell-based; conditions: for IC50: Homo sapiens, A2780, MTT, 72 h, mean ± S.D. (n = 3); for Selectivity Index A2780: IC50 against MRC5 divided by IC50 against A2780
# Procedure: as §1, §2, §3
# [8] = test system: MCF7, A2780 and HT29 cancer cell lines; assay: MTT antiproliferative activity assay, three cancer cell lines together; type: cell-based; conditions: for Selectivity index range toward the three cancer cell lines: MCF7, A2780, HT29 compared to MRC5 cells; for IC50: MCF7, A2780 and HT29, MTT, 72 h, read-out: IC50 range against the three cancer cell lines
# Procedure: as §1, §2, §3
# [9] = MTT assay against normal MRC5 cells; type: cell-based; conditions: human, 72 h treatment, mean ± SD (n = 3)
# Procedure: Selectivity of the antiproliferative agents toward cancer cells plays a critical role in the development of these agents as potential anticancer drugs. […] In the current study, all of the new compounds 16a–h were evaluated for the antiproliferative activities against the normal MRC5 cells. […] The aim of this study was to assess the toxicity of the new compounds against normal MRC5 cells. In addition, the IC50 values were also used to calculate the selectivity index (SI) which measures the selective cytotoxicity of the new compounds.
# as §2, §3
# MCF7 cells [10] = assay: Cell cycle analysis by flow cytometry; type: cell-based; conditions: MCF7 cells, 0.01, 0.05, 0.10 μM, 72 h
# Procedure: Cell cycle analysis of MCF7 cells was also performed to investigate the mechanism which mediates the antiproliferative activity of the new compounds. […] The assay was performed according to the previous report. The results are represented in Figure 11.
# The effect of compound 16g on the cell cycle distribution of MCF7 was performed following the previous report. Briefly, the cancer cells were cultured for 72 h with 0.00, 0.01, 0.05, and 0.10 μM final concentration of compound 16g. Next, the cells were washed with PBS x1 and trypsinized. The collected cells were spinned and fixed with 70% ethanol. Ribonuclease A was added (15 min) after suspending the cells in cold PBS x1. Following the addition of propidium iodide, analysis of the ice-cold cells was done by flow cytometry (BC, FC500, Brea, CA, USA).
# A549 cells = conditions: cited from earlier work
# MCF7 = conditions: Figure 2; cited from earlier work
# [11] = Figure 2, read-out: IC50 (COX-2)
smiles,measurement,setting,value
COC1c2c(-c3ccccc3)c(-c3ccc(Cl)cc3)c(C)n2CC1(C)C (stereo not shown) [Compound 8],IC50,COX-1,0.5 µM
same,IC50,5-LOX,0.06 µM
same,IC50,COX-2; [11],7.5 µM
Cc1ccc(-c2c(-c3ccc(S(C)(=O)=O)cc3)cn3c2CCC3)cc1 [Compound 9],IC50,COX-1,0.7 µM
same,IC50,5-LOX,10 µM
same,IC50,COX-2; [11],0.005 µM
Cc1ccc(NC(=O)c2c(/N=C/c3ccc(Cl)cc3)c(C#N)c3n2CCC3)cc1 [Compound 10],IC50,MCF7 cells [1],0.33 ± 0.12 µM
same,IC50,[2],0.33 to 0.44 µM
same,IC50,HT29 cells [3],0.41 ± 0.02 µM
same,IC50,A2780 cells [4],0.44 ± 0.01 µM
"COc1ccc(NC(=O)c2c(N=Cc3ccc(N(C)C)cc3)c(C#N)c3n2CCC3)cc1 [Compound 16a, 7-Cyano-6-((4-(dimethylamino)benzylidene)amino)-N-(4-methoxyphenyl)-2,3-dihydro-1H-pyrrolizine-5-carboxamide]",IC50,MCF7 cells [5],40.5 ± 10.6 µM
same,Selectivity Index MCF7,MCF7 cells [5],0.03
same,IC50,HT29 cells [6],0.19 ± 0.02 µM
same,Selectivity Index HT29,HT29 cells [6],6.68
same,melting point,,226 to 228 °C
same,IC50,A2780 cells [7],13.9 ± 1.92 µM
same,Selectivity Index A2780,A2780 cells [7],0.09
same,Selectivity index range toward the three cancer cell lines,[8],0.03–6.68
same,IC50,[8],0.19 to 40.5 µM
same,IC50 at 72 h,[9],1.27 ± 0.48 µM
"CN(C)c1ccc(C=Nc2c(C#N)c3n(c2C(=O)Nc2ccc(F)cc2)CCC3)cc1 [Compound 16b, 7-Cyano-6-((4-(dimethylamino)benzylidene)amino)-N-(4-fluorophenyl)-2,3-dihydro-1H-pyrrolizine-5-carboxamide]",IC50,MCF7 cells [5],0.08 ± 0.01 µM
same,Selectivity Index MCF7,MCF7 cells [5],15.88
same,IC50,HT29 cells [6],10.2 ± 0.12 µM
same,Selectivity Index HT29,HT29 cells [6],0.12
same,melting point,,244 to 246 °C
same,IC50,A2780 cells [7],0.9 ± 0.08 µM
same,Selectivity Index A2780,A2780 cells [7],1.41
same,IC50 at 72 h,[9],1.27 ± 0.32 µM
"COc1ccc(NC(=O)c2c(N=Cc3ccc(C)cc3)c(C#N)c3n2CCC3)cc1 [Compound 16c, 7-Cyano-N-(4-methoxyphenyl)-6-((4-methylbenzylidene)amino)-2,3-dihydro-1H-pyrrolizine-5-carboxamide]",IC50,MCF7 cells [5],0.03 ± 0.01 µM
same,IC50,HT29 cells [6],2.27 ± 0.61 µM
same,Selectivity Index HT29,HT29 cells [6],10.60
same,melting point,,231 to 233 °C
same,IC50,A2780 cells [7],0.14 ± 0.02 µM
same,IC50 at 72 h,[9],24.1 ± 1.31 µM
"Cc1ccc(C=Nc2c(C#N)c3n(c2C(=O)Nc2ccc(F)cc2)CCC3)cc1 [Compound 16d, 7-Cyano-N-(4-fluorophenyl)-6-((4-methylbenzylidene)amino)-2,3-dihydro-1H-pyrrolizine-5-carboxamide]",IC50,MCF7 cells [5],7.05 ± 0.28 µM
same,Selectivity Index MCF7,MCF7 cells [5],0.34
same,IC50,HT29 cells [6],0.17 ± 0.01 µM
same,Selectivity Index HT29,HT29 cells [6],14.24
same,melting point,,241 to 243 °C
same,IC50,A2780 cells [7],21.2 ± 2.43 µM
same,Selectivity Index A2780,A2780 cells [7],0.11
same,IC50 at 72 h,[9],2.42 ± 0.56 µM
"COc1ccc(NC(=O)c2c(N=Cc3ccc(F)cc3)c(C#N)c3n2CCC3)cc1 [Compound 16e, 7-Cyano-6-((4-fluorobenzylidene)amino)-N-(4-methoxyphenyl)-2,3-dihydro-1H-pyrrolizine-5-carboxamide]",IC50,MCF7 cells [5],0.15 ± 0.02 µM
same,Selectivity Index MCF7,MCF7 cells [5],18.47
same,IC50,HT29 cells [6],0.34 ± 0.03 µM
same,Selectivity Index HT29,HT29 cells [6],8.15
same,melting point,,239 to 241 °C
same,IC50,A2780 cells [7],1.4 ± 0.21 µM
same,Selectivity Index A2780,A2780 cells [7],1.98
same,IC50 at 72 h,[9],2.77 ± 0.09 µM
"N#Cc1c(N=Cc2ccc(F)cc2)c(C(=O)Nc2ccc(F)cc2)n2c1CCC2 [Compound 16f, 7-Cyano-6-((4-fluorobenzylidene)amino)-N-(4-fluorophenyl)-2,3-dihydro-1H-pyrrolizine-5-carboxamide]",IC50,MCF7 cells [5],40.5 ± 7.7 µM
same,Selectivity Index MCF7,MCF7 cells [5],0.03
same,IC50,HT29 cells [6],0.21 ± 0.12 µM
same,Selectivity Index HT29,HT29 cells [6],6.38
same,melting point,,253 to 255 °C
same,IC50,A2780 cells [7],0.49 ± 0.12 µM
same,Selectivity Index A2780,A2780 cells [7],2.73
same,IC50 at 72 h,[9],1.34 ± 0.45 µM
"COc1ccc(NC(=O)c2c(N=Cc3ccc(Cl)cc3)c(C#N)c3n2CCC3)cc1 [Compound 16g, 6-((4-Chlorobenzylidene)amino)-7-cyano-N-(4-methoxyphenyl)-2,3-dihydro-1H-pyrrolizine-5-carboxamide]",IC50,MCF7 cells [5],0.01 µM
same,IC50,HT29 cells [6],0.37 ± 0.18 µM
same,Selectivity Index HT29,HT29 cells [6],15.62
same,melting point,,241 to 243 °C
same,IC50,A2780 cells [7],0.56 ± 0.01 µM
same,Selectivity Index A2780,A2780 cells [7],10.32
same,Cell cycle perturbation,MCF7 cells [10],cell cycle arrest at the G2/M phase
same,Selectivity index range toward the three cancer cell lines,[8],10.32–578.00
same,IC50 at 72 h,[9],5.78 ± 0.63 µM
"N#Cc1c(N=Cc2ccc(Cl)cc2)c(C(=O)Nc2ccc(F)cc2)n2c1CCC2 [Compound 16h, 6-((4-Chlorobenzylidene)amino)-7-cyano-N-(4-fluorophenyl)-2,3-dihydro-1H-pyrrolizine-5-carboxamide]",IC50,MCF7 cells [5],26.9 ± 1.67 µM
same,Selectivity Index MCF7,MCF7 cells [5],0.06
same,IC50,HT29 cells [6],0.71 ± 0.29 µM
same,Selectivity Index HT29,HT29 cells [6],2.25
same,melting point,,262 to 264 °C
same,IC50,A2780 cells [7],42.6 ± 3.47 µM
same,Selectivity Index A2780,A2780 cells [7],0.04
same,IC50 at 72 h,[9],1.6 ± 0.12 µM
"O=C(c1ccccc1)c1ccc2n1CCC2C(=O)O (stereo not shown) [Ketorolac, ketorolac]",IC50,A549 cells,~13 µM
same,IC50,COX-2; [11],0.14 µM
"CS(=O)(=O)CCNCc1ccc(-c2ccc3ncnc(Nc4ccc(OCc5cccc(F)c5)c(Cl)c4)c3c2)o1 [Lapatinib, lapatinib, reference compound]",IC50,MCF7 cells [5],5.98 ± 1.31 µM
same,Selectivity Index MCF7,MCF7 cells [5],2.49
same,IC50,HT29 cells [6],13.2 ± 1.82 µM
same,Selectivity Index HT29,HT29 cells [6],1.13
same,IC50,A2780 cells [7],9.86 ± 1.72 µM
same,Selectivity Index A2780,A2780 cells [7],1.51
same,IC50,[8],5.98 to 13.2 µM
same,IC50 at 72 h,[9],14.9 ± 2.45 µM
CC1(C)Cc2c(-c3ccccc3)c(-c3ccc(Cl)cc3)c(CC(=O)O)n2C1 [Licofelone],IC50,MCF7,5.5 µM
same,IC50,COX-2; [11],4.7 µM
"CS(=O)(=O)c1ccc(C2=C(c3ccccc3)C(=O)OC2)cc1 [Rofecoxib, rofecoxib]",IC50,COX-2; read-out: IC50 against COX-2,0.53 µM
